In US12281125B2, “Rapamycin derivatives” (NOVARTIS AG, priority 2018, dated 2025):

System: mTORc1 signaling, pS6 (Ser240/244) in MEF TSCl−/− cells
Test: Cell-based assay for rapalog potency (pS6) in MEF TSCl−/− cells
Conditions: Mus musculus, 2 hours treatment, average from multiple assays
Protocol: Rapalog potency was determined using MEF TSCl−/− cell based assay. MEF TSCl−/− cells are Mouse Embryonic Fibroblasts deficient in Tuberous sclerosis protein—TSCl, which negatively regulates mTORc1 signaling and thus display constitutive mTORc1 activation, resulting in phosphorylation (activation) of downstream molecules. This cell-based assay is used to measure inhibition (de-phosphorylation) of S6 and 4EBP1 by rapalogs or other mTOR inhibitors.
MEF TSCl−/− cells were plated on Poly-D-lysine coated 384 well Griener clear bottom plates and incubated overnight at 37° C., 5% CO2. On the following day, cells were washed 8 times with “Hard starve” solution (1 L DPBS+1 g D-(+) glucose+10 ml of 7.5% Sodium Bicarbonate+20 ml of 1M HEPES) and incubated for further 2 hours in the same solution. Cells were next treated with compounds with decreasing concentrations (8 points at 3.16 fold dilutions) and incubated for 2 hours at 37° C., 5% CO2. Cells were fixed with 4% paraformaldehyde for 30 min and washed 5 times with TBS-EDTA followed by immuno-staining with fluorescent tag labeled antibodies for pS6 (Ser240/244) (Cell Signaling #9468) and p4EBP1 (Thr 37/46) (Cell Signaling #5123). Nuclei were visualized with Hoechst (ThermoFisher Scientific #H3570) staining. Cells were imaged (InCell 600) using respective fluorescence channels and the potency of mTOR inhibitors was defined by pS6 IC50 (nM).
In vitro potency of mTOR inhibitors was defined by pS6 IC50 (nM) in MEF TSCl−/− cells.
IC50 values are calculated as the average from multiple assays.

Structure (SMILES) | IC50 [nM]
CO[C@@H]1C[C@H](C[C@@H](C)[C@@H]2CC[C@H](C)/C=C(\C)[C@@H](O)[C@@H](OC)C(=O)[C@H](C)C[C@H](C)/C=C/C=C/C=C(\C)[C@@H](N)C[C@@H]3CC[C@@H](C)[C@@](O)(O3)C(=O)C(=O)N3CCCC[C@H]3C(=O)O2)CC[C@H]1O [Compound 28] | 0.35
CN[C@@H]1C[C@@H]2CC[C@@H](C)[C@@](O)(O2)C(=O)C(=O)N2CCCC[C@H]2C(=O)O[C@H]([C@H](C)C[C@@H]2CC[C@@H](O)[C@H](OC)C2)CC[C@H](C)/C=C(\C)[C@@H](O)[C@@H](OC)C(=O)[C@H](C)C[C@H](C)/C=C/C=C/C=C/1C [Compound 32] | 18
CO[C@@H]1C[C@H](C[C@@H](C)[C@@H]2CC[C@H](C)/C=C(\C)[C@@H](O)[C@@H](OC)C(=O)[C@H](C)C[C@H](C)/C=C/C=C/C=C(\C)[C@H](NO)C[C@@H]3CC[C@@H](C)[C@@](O)(O3)C(=O)C(=O)N3CCCC[C@H]3C(=O)O2)CC[C@H]1O [Compound 36] | 1.6
CO[C@@H]1C[C@H](C[C@@H](C)[C@@H]2CC[C@H](C)/C=C(\C)[C@@H](O)[C@@H](OC)C(=O)[C@H](C)C[C@H](C)/C=C/C=C/C=C(\C)[C@H](NCCS(=O)(=O)O)C[C@@H]3CC[C@@H](C)[C@@](O)(O3)C(=O)C(=O)N3CCCC[C@H]3C(=O)O2)CC[C@H]1O [Compound 39] | > 500
CO[C@@H]1C[C@H](C[C@@H](C)[C@@H]2CC[C@H](C)/C=C(\C)[C@@H](O)[C@@H](OC)C(=O)[C@H](C)C[C@H](C)/C=C/C=C/C=C(\C)[C@@H](NS(=O)(=O)CC(C)C)C[C@@H]3CC[C@@H](C)[C@@](O)(O3)C(=O)C(=O)N3CCCC[C@H]3C(=O)O2)CC[C@H]1O [Compound 9] | 2.7
CO[C@@H]1C[C@H](C[C@@H](C)[C@@H]2CC[C@H](C)/C=C(\C)[C@@H](O)[C@@H](OC)C(=O)[C@H](C)C[C@H](C)/C=C/C=C/C=C(\C)[C@@H](NS(C)(=O)=O)C[C@@H]3CC[C@@H](C)[C@@](O)(O3)C(=O)C(=O)N3CCCC[C@H]3C(=O)O2)CC[C@@H]1n1cnnn1 [Compound 22] | 0.11
CCCS(=O)(=O)N[C@H]1C[C@@H]2CC[C@@H](C)[C@@](O)(O2)C(=O)C(=O)N2CCCC[C@H]2C(=O)O[C@H]([C@H](C)C[C@@H]2CC[C@@H](O)[C@H](OC)C2)CC[C@H](C)/C=C(\C)[C@@H](O)[C@@H](OC)C(=O)[C@H](C)C[C@H](C)/C=C/C=C/C=C/1C [Compound 5] | 1.8
CO[C@@H]1C[C@H](C[C@@H](C)[C@@H]2CC[C@H](C)/C=C(\C)[C@@H](O)[C@@H](OC)C(=O)[C@H](C)C[C@H](C)/C=C/C=C/C=C(\C)[C@@H](N(C)S(C)(=O)=O)C[C@@H]3CC[C@@H](C)[C@@](O)(O3)C(=O)C(=O)N3CCCC[C@H]3C(=O)O2)CC[C@H]1OP(C)(C)=O [Compound 27] | 1.9
CO[C@@H]1C[C@H](C[C@@H](C)[C@@H]2CC[C@H](C)/C=C(\C)[C@@H](O)[C@@H](OC)C(=O)[C@H](C)C[C@H](C)/C=C/C=C/C=C(\C)[C@@H](NO)C[C@@H]3CC[C@@H](C)[C@@](O)(O3)C(=O)C(=O)N3CCCC[C@H]3C(=O)O2)CC[C@H]1O [Compound 37] | 0.21
CO[C@@H]1C[C@H](C[C@@H](C)[C@@H]2CC[C@H](C)/C=C(\C)[C@@H](O)[C@@H](OC)C(=O)[C@H](C)C[C@H](C)/C=C/C=C/C=C(\C)[C@@H](NCCS(=O)(=O)O)C[C@@H]3CC[C@@H](C)[C@@](O)(O3)C(=O)C(=O)N3CCCC[C@H]3C(=O)O2)CC[C@H]1OCCO [Compound 40] | 160
CO[C@@H]1C[C@H](C[C@@H](C)[C@@H]2CC[C@H](C)/C=C(\C)[C@@H](O)[C@@H](OC)C(=O)[C@H](C)C[C@H](C)/C=C/C=C/C=C(\C)[C@@H](NS(=O)(=O)CCO)C[C@@H]3CC[C@@H](C)[C@@](O)(O3)C(=O)C(=O)N3CCCC[C@H]3C(=O)O2)CC[C@H]1O [Compound 19] | 0.34
CO[C@@H]1C[C@H](C[C@@H](C)[C@@H]2CC[C@H](C)/C=C(\C)[C@@H](O)[C@@H](OC)C(=O)[C@H](C)C[C@H](C)/C=C/C=C/C=C(\C)C(NC(=O)OC(C)(C)C)C[C@@H]3CC[C@@H](C)[C@@](O)(O3)C(=O)C(=O)N3CCCC[C@H]3C(=O)O2)CC[C@H]1O (some centres unmarked) [Intermediate 8] | 0.18
CO[C@@H]1C[C@H](C[C@@H](C)[C@@H]2CC[C@H](C)/C=C(\C)[C@@H](O)[C@@H](OC)C(=O)[C@H](C)C[C@H](C)/C=C/C=C/C=C(\C)[C@@H](NS(=O)(=O)C(C)C)C[C@@H]3CC[C@@H](C)[C@@](O)(O3)C(=O)C(=O)N3CCCC[C@H]3C(=O)O2)CC[C@H]1O [Compound 7] | 2.4
CO[C@@H]1C[C@H](C[C@@H](C)[C@@H]2CC[C@H](C)/C=C(\C)[C@@H](O)[C@@H](OC)C(=O)[C@H](C)C[C@H](C)/C=C/C=C/C=C(\C)[C@H](NS(C)(=O)=O)C[C@@H]3CC[C@@H](C)[C@@](O)(O3)C(=O)C(=O)N3CCCC[C@H]3C(=O)O2)CC[C@@H]1n1cnnn1 [Compound 21] | 2.1
CO[C@@H]1C[C@H](C[C@@H](C)[C@@H]2CC[C@H](C)/C=C(\C)[C@@H](O)[C@@H](OC)C(=O)[C@H](C)C[C@H](C)/C=C/C=C/C=C(\C)[C@@H](NS(=O)(=O)C3CCC3)C[C@@H]3CC[C@@H](C)[C@@](O)(O3)C(=O)C(=O)N3CCCC[C@H]3C(=O)O2)CC[C@H]1O [Compound 13] | 5.3
CO[C@@H]1C[C@H](C[C@@H](C)[C@@H]2CC[C@H](C)/C=C(\C)[C@@H](O)[C@@H](OC)C(=O)[C@H](C)C[C@H](C)/C=C/C=C/C=C(\C)[C@@H](N(O)C(=O)OC(C)(C)C)C[C@@H]3CC[C@@H](C)[C@@](O)(O3)C(=O)C(=O)N3CCCC[C@H]3C(=O)O2)CC[C@H]1O [Compound 35] | 4.4
CO[C@@H]1C[C@H](C[C@@H](C)[C@@H]2CC[C@H](C)/C=C(\C)[C@@H](O)[C@@H](OC)C(=O)[C@H](C)C[C@H](C)/C=C/C=C/C=C(\C)[C@H](NS(=O)(=O)C(C)C)C[C@@H]3CC[C@@H](C)[C@@](O)(O3)C(=O)C(=O)N3CCCC[C@H]3C(=O)O2)CC[C@H]1O [Compound 8] | 4.5
CCCS(=O)(=O)N[C@@H]1C[C@@H]2CC[C@@H](C)[C@@](O)(O2)C(=O)C(=O)N2CCCC[C@H]2C(=O)O[C@H]([C@H](C)C[C@@H]2CC[C@@H](O)[C@H](OC)C2)CC[C@H](C)/C=C(\C)[C@@H](O)[C@@H](OC)C(=O)[C@H](C)C[C@H](C)/C=C/C=C/C=C/1C [Compound 6] | 13
CO[C@@H]1C[C@H](C[C@@H](C)[C@@H]2CC[C@H](C)/C=C(\C)[C@@H](O)[C@@H](OC)C(=O)[C@H](C)C[C@H](C)/C=C/C=C/C=C(\C)[C@@H](NCCS(=O)(=O)O)C[C@@H]3CC[C@@H](C)[C@@](O)(O3)C(=O)C(=O)N3CCCC[C@H]3C(=O)O2)CC[C@H]1O [Compound 38] | > 500
CO[C@@H]1C[C@H](C[C@@H](C)[C@@H]2CC[C@H](C)/C=C(\C)[C@@H](O)[C@@H](OC)C(=O)[C@H](C)C[C@H](C)/C=C/C=C/C=C(\C)[C@H](NS(=O)(=O)C3CCCC3)C[C@@H]3CC[C@@H](C)[C@@](O)(O3)C(=O)C(=O)N3CCCC[C@H]3C(=O)O2)CC[C@H]1O [Compound 16] | 50
CO[C@@H]1C[C@H](C[C@@H](C)[C@@H]2CC[C@H](C)/C=C(\C)[C@@H](O)[C@@H](OC)C(=O)[C@H](C)C[C@H](C)/C=C/C=C/C=C(\C)[C@H](NS(=O)(=O)CC(C)C)C[C@@H]3CC[C@@H](C)[C@@](O)(O3)C(=O)C(=O)N3CCCC[C@H]3C(=O)O2)CC[C@H]1O [Compound 10] | 12
CN[C@H]1C[C@@H]2CC[C@@H](C)[C@@](O)(O2)C(=O)C(=O)N2CCCC[C@H]2C(=O)O[C@H]([C@H](C)C[C@@H]2CC[C@@H](O)[C@H](OC)C2)CC[C@H](C)/C=C(\C)[C@@H](O)[C@@H](OC)C(=O)[C@H](C)C[C@H](C)/C=C/C=C/C=C/1C [Compound 33] | 0.67
CO[C@@H]1C[C@H](C[C@@H](C)[C@@H]2CC[C@H](C)/C=C(\C)[C@@H](O)[C@@H](OC)C(=O)[C@H](C)C[C@H](C)/C=C/C=C/C=C(\C)[C@H](NS(=O)(=O)C3CCC3)C[C@@H]3CC[C@@H](C)[C@@](O)(O3)C(=O)C(=O)N3CCCC[C@H]3C(=O)O2)CC[C@H]1O [Compound 14] | 7.2
CO[C@@H]1C[C@H](C[C@@H](C)[C@@H]2CC[C@H](C)/C=C(\C)[C@@H](O)[C@@H](OC)C(=O)[C@H](C)C[C@H](C)/C=C/C=C/C=C(\C)[C@H](NS(C)(=O)=O)C[C@@H]3CC[C@@H](C)[C@@](O)(O3)C(=O)C(=O)N3CCCC[C@H]3C(=O)O2)CC[C@H]1OP(C)(C)=O [Compound 23] | 26
CO[C@@H]1C[C@H](C[C@@H](C)[C@@H]2CC[C@H](C)/C=C(\C)[C@@H](O)[C@@H](OC)C(=O)[C@H](C)C[C@H](C)/C=C/C=C/C=C(\C)[C@H](NS(C)(=O)=O)C[C@@H]3CC[C@@H](C)[C@@](O)(O3)C(=O)C(=O)N3CCCC[C@H]3C(=O)O2)CC[C@H]1OCCO [Compound 25] | 1.8
CO[C@@H]1C[C@H](C[C@@H](C)[C@@H]2CC[C@H](C)/C=C(\C)[C@@H](O)[C@@H](OC)C(=O)[C@H](C)C[C@H](C)/C=C/C=C/C=C(\C)[C@H](NS(=O)(=O)CCO)C[C@@H]3CC[C@@H](C)[C@@](O)(O3)C(=O)C(=O)N3CCCC[C@H]3C(=O)O2)CC[C@H]1O [Compound 20] | 1.7
